# From PMC10482975 (Nature Communications, 2023)
# Where a chain is given by its changes, count along the chain named.
# What was measured:
# M4 mAChR Y89A = molecular target: T1, M4 mAChR Y89A (Homo sapiens, UniProt P08173, Y89A); experiment: [3H]-NMS radioligand dissociation binding, M4 mAChR Y89A; set-up: [3H]-NMS binding remaining vs Total Binding, MEAN: unit not given here; conditions: for [3H]-NMS binding remaining vs Total Binding, MEAN: M4 Y89A mAChR; for effect on [3H]-NMS dissociation (in words): M4 mAChR Y89A mutant
# T1 construct: expressed in transfected cells
# T1 sequence (P08173 1-479 Y89A): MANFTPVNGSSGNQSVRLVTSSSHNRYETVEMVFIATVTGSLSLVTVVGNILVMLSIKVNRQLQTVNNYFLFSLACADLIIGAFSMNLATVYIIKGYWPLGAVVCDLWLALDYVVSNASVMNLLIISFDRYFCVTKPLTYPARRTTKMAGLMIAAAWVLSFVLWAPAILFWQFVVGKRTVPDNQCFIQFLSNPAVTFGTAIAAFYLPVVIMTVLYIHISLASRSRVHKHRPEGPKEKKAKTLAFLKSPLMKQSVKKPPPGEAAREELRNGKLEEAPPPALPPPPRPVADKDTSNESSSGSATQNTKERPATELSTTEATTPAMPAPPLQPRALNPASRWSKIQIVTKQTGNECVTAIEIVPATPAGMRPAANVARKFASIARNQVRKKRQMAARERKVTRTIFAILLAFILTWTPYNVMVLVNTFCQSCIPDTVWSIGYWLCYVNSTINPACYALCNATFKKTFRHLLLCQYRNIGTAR
# Method: (§1) Flp-In Chinese hamster ovary (CHO) (Thermo Fisher Scientific) cells stably expressing mAChR WTs or mutant constructs were cultured in Dulbecco’s modified Eagle’s medium (DMEM, Invitrogen) containing 5% foetal bovine serum (FBS; ThermoTrace) and […] of hygromycin (Roche) in a humidified incubator (37 °C, 5% CO2). Upon reaching confluence, media was removed, cells were washed with phosphate buffered saline (PBS) and harvested from tissue culture flasks using versene (PBS with 0.2 g EDTA). Cells were then pelleted through centrifugation at 350 × g for three minutes followed by resuspension in DMEM + 5% FBS. Cells were then either plated for an assay or reseeded into a tissue culture flask.
# M4 mAChR Y92A = molecular target: T2, M4 mAChR Y92A (Homo sapiens, UniProt P08173, Y92A); experiment: [3H]-NMS radioligand dissociation binding, M4 mAChR Y92A; set-up: [3H]-NMS binding remaining vs Total Binding, MEAN: unit not given here; conditions: for [3H]-NMS binding remaining vs Total Binding, MEAN: M4 Y92A mAChR
# T2 construct: expressed in transfected cells
# T2 sequence (P08173 1-479 Y92A): T1 sequence (P08173 1-479 Y89A) with A89Y, Y92A
# Method: as §1
# M4 mAChR W435A = molecular target: T3, M4 mAChR W435A (Homo sapiens, UniProt P08173, W435A); experiment: [3H]-NMS radioligand dissociation binding, M4 mAChR W435A; set-up: [3H]-NMS binding remaining vs Total Binding, MEAN: unit not given here; conditions: for [3H]-NMS binding remaining vs Total Binding, MEAN: M4 W435A mAChR
# T3 construct: expressed in transfected cells
# T3 sequence (P08173 1-479 W435A): T1 sequence (P08173 1-479 Y89A) with A89Y, W435A
# Method: as §1
# M4 mAChR F186A = molecular target: T4, M4 mAChR F186A (Homo sapiens, UniProt P08173, F186A); experiment: [3H]-NMS radioligand dissociation binding, M4 mAChR F186A; conditions: for [3H]-NMS binding remaining (0 min = 100), MEAN: M4 F186A mAChR; for effect on [3H]-NMS dissociation (in words): M4 mAChR F186A mutant
# T4 construct: expressed in transfected cells
# T4 sequence (P08173 1-479 F186A): T1 sequence (P08173 1-479 Y89A) with A89Y, F186A
# Method: as §1
# [1] = + 10uM LY2033 (Allosteric Ligand), Time 0 min (Total Binding)
# [2] = + 10uM LY2033 (Allosteric Ligand), Time 30 min
# [3] = + 10uM LY2033 (Allosteric Ligand), Time 60 min
# [4] = + 10uM LY2033 (Allosteric Ligand), Time 90 min
# [5] = + 10uM LY2033 (Allosteric Ligand), Time 120 min
# [6] = + 10uM LY2033 (Allosteric Ligand), Time 180 min
# [7] = + 10uM LY2033 (Allosteric Ligand), Time 300 min
smiles,measurement,setting,value
COc1nc2sc(C(=O)NC3CC3)c(N)c2c(C)c1Cl [LY2033298],"[3H]-NMS binding remaining vs Total Binding, MEAN",M4 mAChR Y89A; [1],100.077
same,"[3H]-NMS binding remaining vs Total Binding, MEAN",M4 mAChR Y89A; [2],111.396
same,"[3H]-NMS binding remaining vs Total Binding, MEAN",M4 mAChR Y89A; [3],121.467
same,"[3H]-NMS binding remaining vs Total Binding, MEAN",M4 mAChR Y89A; [4],123.726
same,"[3H]-NMS binding remaining vs Total Binding, MEAN",M4 mAChR Y89A; [5],111.892
same,"[3H]-NMS binding remaining vs Total Binding, MEAN",M4 mAChR Y89A; [6],116.814
same,"[3H]-NMS binding remaining vs Total Binding, MEAN",M4 mAChR Y89A; [7],102.533
same,effect on [3H]-NMS dissociation (in words),M4 mAChR Y89A,the same effect was observed
same,"[3H]-NMS binding remaining vs Total Binding, MEAN",M4 mAChR Y92A; [1],100
same,"[3H]-NMS binding remaining vs Total Binding, MEAN",M4 mAChR Y92A; [2],108.824
same,"[3H]-NMS binding remaining vs Total Binding, MEAN",M4 mAChR Y92A; [3],96.2598
same,"[3H]-NMS binding remaining vs Total Binding, MEAN",M4 mAChR Y92A; [4],94.6146
same,"[3H]-NMS binding remaining vs Total Binding, MEAN",M4 mAChR Y92A; [5],83.2371
same,"[3H]-NMS binding remaining vs Total Binding, MEAN",M4 mAChR Y92A; [6],74.311
same,"[3H]-NMS binding remaining vs Total Binding, MEAN",M4 mAChR Y92A; [7],49.3255
same,"[3H]-NMS binding remaining vs Total Binding, MEAN",M4 mAChR W435A; [1],100
same,"[3H]-NMS binding remaining vs Total Binding, MEAN",M4 mAChR W435A; [2],87.6204
same,"[3H]-NMS binding remaining vs Total Binding, MEAN",M4 mAChR W435A; [3],83.5904
same,"[3H]-NMS binding remaining vs Total Binding, MEAN",M4 mAChR W435A; [4],79.4133
same,"[3H]-NMS binding remaining vs Total Binding, MEAN",M4 mAChR W435A; [5],78.9331
same,"[3H]-NMS binding remaining vs Total Binding, MEAN",M4 mAChR W435A; [6],67.1451
same,"[3H]-NMS binding remaining vs Total Binding, MEAN",M4 mAChR W435A; [7],50.6666
same,"[3H]-NMS binding remaining (0 min = 100), MEAN","M4 mAChR F186A; 10uM Atr + 30uM LY2033, 30 min",80.3007
same,"[3H]-NMS binding remaining (0 min = 100), MEAN","M4 mAChR F186A; 10uM Atr + 30uM LY2033, 90 min",48.89
same,"[3H]-NMS binding remaining (0 min = 100), MEAN","M4 mAChR F186A; 10uM Atr + 30uM LY2033, 180 min",55.5733
same,"[3H]-NMS binding remaining (0 min = 100), MEAN","M4 mAChR F186A; 10uM Atr + 30uM LY2033, 300 min",28.0247
same,effect on [3H]-NMS dissociation (in words),M4 mAChR F186A,a similar effect was observed
C[N+](C)(C)CC#CCOC1=NOCC1 [iperoxo],"[3H]-NMS binding remaining (0 min = 100), MEAN","M4 mAChR F186A; 10uM Atr + 10 μM Iperoxo, 30 min",78.4972
same,"[3H]-NMS binding remaining (0 min = 100), MEAN","M4 mAChR F186A; 10uM Atr + 10 μM Iperoxo, 90 min",56.5181
same,"[3H]-NMS binding remaining (0 min = 100), MEAN","M4 mAChR F186A; 10uM Atr + 10 μM Iperoxo, 180 min",43.1916
same,"[3H]-NMS binding remaining (0 min = 100), MEAN","M4 mAChR F186A; 10uM Atr + 10 μM Iperoxo, 300 min",30.9448
CCCCCCOc1nsnc1C1=CCCN(C)C1 [xanomeline],"[3H]-NMS binding remaining vs Total Binding, MEAN","M4 mAChR Y89A; +100uM Xano, Time 30 min",98.3579
same,"[3H]-NMS binding remaining vs Total Binding, MEAN","M4 mAChR Y89A; +100uM Xano, Time 60 min",102.694
same,"[3H]-NMS binding remaining vs Total Binding, MEAN","M4 mAChR Y89A; +100uM Xano, Time 90 min",104.852
same,"[3H]-NMS binding remaining vs Total Binding, MEAN","M4 mAChR Y89A; +100uM Xano, Time 120 min",120.479
same,"[3H]-NMS binding remaining vs Total Binding, MEAN","M4 mAChR Y89A; +100uM Xano, Time 300 min",77.2149
same,effect on [3H]-NMS dissociation (in words),M4 mAChR Y89A,improved ability
same,"[3H]-NMS binding remaining vs Total Binding, MEAN","M4 mAChR Y92A; +100uM Xano, Time 30 min",84.6188
same,"[3H]-NMS binding remaining vs Total Binding, MEAN","M4 mAChR Y92A; +100uM Xano, Time 60 min",76.9087
same,"[3H]-NMS binding remaining vs Total Binding, MEAN","M4 mAChR Y92A; +100uM Xano, Time 90 min",63.0845
same,"[3H]-NMS binding remaining vs Total Binding, MEAN","M4 mAChR Y92A; +100uM Xano, Time 120 min",54.6505
same,"[3H]-NMS binding remaining vs Total Binding, MEAN","M4 mAChR Y92A; +100uM Xano, Time 300 min",15.7486
same,effect on [3H]-NMS dissociation (in words),M4 mAChR Y92A; M4 mAChR Y92A mutant,loss in xanomeline modulation
same,"[3H]-NMS binding remaining vs Total Binding, MEAN","M4 mAChR W435A; +100uM Xano, Time 30 min",96.9648
same,"[3H]-NMS binding remaining vs Total Binding, MEAN","M4 mAChR W435A; +100uM Xano, Time 60 min",87.005
same,"[3H]-NMS binding remaining vs Total Binding, MEAN","M4 mAChR W435A; +100uM Xano, Time 90 min",77.1921
same,"[3H]-NMS binding remaining vs Total Binding, MEAN","M4 mAChR W435A; +100uM Xano, Time 120 min",74.9315
same,"[3H]-NMS binding remaining vs Total Binding, MEAN","M4 mAChR W435A; +100uM Xano, Time 180 min",64.2361
same,"[3H]-NMS binding remaining vs Total Binding, MEAN","M4 mAChR W435A; +100uM Xano, Time 300 min",31.9462
same,effect on [3H]-NMS dissociation (in words),M4 mAChR W435A; M4 mAChR W435A mutant,loss in xanomeline modulation
same,"[3H]-NMS binding remaining (0 min = 100), MEAN","M4 mAChR F186A; 10uM Atr + 30 μM Xano, 30 min",78.1603
same,"[3H]-NMS binding remaining (0 min = 100), MEAN","M4 mAChR F186A; 10uM Atr + 30 μM Xano, 90 min",48.8248
same,"[3H]-NMS binding remaining (0 min = 100), MEAN","M4 mAChR F186A; 10uM Atr + 30 μM Xano, 180 min",47.3729
same,"[3H]-NMS binding remaining (0 min = 100), MEAN","M4 mAChR F186A; 10uM Atr + 100uM Xano, 30 min",72.0364
same,"[3H]-NMS binding remaining (0 min = 100), MEAN","M4 mAChR F186A; 10uM Atr + 100uM Xano, 90 min",60.4086
same,"[3H]-NMS binding remaining (0 min = 100), MEAN","M4 mAChR F186A; 10uM Atr + 100uM Xano, 180 min",46.0676
same,"[3H]-NMS binding remaining (0 min = 100), MEAN","M4 mAChR F186A; 10uM Atr + 100uM Xano, 300 min",23.3758
same,effect on [3H]-NMS dissociation (in words),M4 mAChR F186A,no longer retarded
